This series concerns human PBMCs. As to the kind of experiment: Human PBMC cytokine response assay (IFN-γ and IFN-α in cell-free medium by ELISA), with or without cPLGA.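 On IFN-α (pg/ml) mean: 20 µg/mL compound for 24 hours.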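 On IFN-γ (pg/ml) mean: 20 µg/mL compound for 24 hours.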 Particulars: for immunomodulatory activity (IFN-γ / IFN-α secretion), in words: used alone (no cPLGA); for IFN-a (pg/ml) ×2: mean ×2; for IFN-g (pg/ml) ×4: mean ×4. The class given is cell-based. In general terms: In an ELISA, binding on a coated surface is turned into a signal by an enzyme label.

Where [1] appears, read: mean of donors 110, 112, 119, 120, Table 14.
The mark [2] stands for this setting: mean of Donors 3-4, 20 μg/ml, 24 h.
Setting [3] is: mean of donors 28218-28221, 20 μg/ml, 24 h.
[4] abbreviates: Table 24, mean of donors 28234-28237.
Setting [5] is: mean of donors 28185-28188, Table 15.

Entries after “also recorded” stand apart in the source; their conditions may differ.

“5′-AGATGAT-3′-HEG-5′-ACGTTCG-3′-HEG-5′-TCGTCGA-3′ [Compound C-60]” had an IFN-α (Table 13, donor 28156) of 5 pg/mL; an IFN-α (Table 13, donor 28157) of 22 pg/mL; an IFN-α (Table 13, donor 28158) of 3 pg/mL; an IFN-α (Table 13, donor 28159) of 1 pg/mL. This substance displayed an IFN-γ (Table 13, donor 28156) of 304 pg/mL; an IFN-γ (Table 13, donor 28157) of 209 pg/mL; an IFN-γ (Table 13, donor 28158) of 26 pg/mL; an IFN-γ (Table 13, donor 28159) of 38 pg/mL. For the setting “Table 13, mean of donors”, this substance displayed an IFN-α mean of 8 pg/mL. Under “Table 13, mean of donors”, this substance displayed an IFN-γ mean of 144 pg/mL.

As for “5′-AGATGAT-3′-HEG-5′-TCGTCGA-3′-HEG-5′-ACGTTCG-3′ [Compound C-59]”, the “IFN-α” value stood at 2 pg/mL (donor 110, Table 14); 6 pg/mL (donor 112, Table 14); 2 pg/mL (donor 119, Table 14); 2 pg/mL (donor 120, Table 14). In addition, the “IFN-γ” value worked out at 256 pg/mL (donor 110, Table 14); 52 pg/mL (donor 112, Table 14); 28 pg/mL (donor 119, Table 14); 40 pg/mL (donor 120, Table 14). The “IFN-α (pg/ml) mean” value under setting [1] was determined as 3 pg/mL. The “IFN-γ (pg/ml) mean” value under setting [1] was 94 pg/mL.

In the case of “5′-ATCTCGA-3′ [Compound P-5, reference compound]”, the “immunomodulatory activity (IFN-γ / IFN-α secretion), in words” value was “did not have immunomodulatory activity”. For the same substance, under “Donor 3, 20 μg/ml, 24 h”, the “IFN-α (pg/ml) Donor 3” value stood at 0 pg/mL and the “IFN-γ (pg/ml) Donor 3” value amounted to 0 pg/mL. Where the note is “Donor 4, 20 μg/ml, 24 h”, the “IFN-α (pg/ml) Donor 4” value stood at 57 pg/mL and the “IFN-γ (pg/ml) Donor 4” value came to 3 pg/mL. Under setting [2], the “IFN-α (pg/ml) mean” value is 29 pg/mL and the “IFN-γ (pg/ml) mean” value is 2 pg/mL.

With “5′-CGTTCGA-3′-HEG-5′-CGTTCGA-3′-HEG-5′-CGTTCGA-3′ [Compound C-52]”, the IFN-α (Table 10, donor 28042) stood at 0 pg/mL; the IFN-α (Table 10, donor 28043) was determined as 3 pg/mL; the IFN-α (Table 10, donor 28044) was found to be 35 pg/mL; the IFN-α (Table 10, donor 28045) is 48 pg/mL; the “IFN-α” value (donor 110, Table 14) amounted to 2 pg/mL; the “IFN-α” value (donor 112, Table 14) came out at 2 pg/mL. In addition, the “IFN-α” value (donor 119, Table 14) amounted to 292 pg/mL and the “IFN-α” value (donor 120, Table 14) is 2 pg/mL. Further, the IFN-γ reads like this: (Table 10, donor 28042) 238 pg/mL; (Table 10, donor 28043) 214 pg/mL; (Table 10, donor 28044) 212 pg/mL; (Table 10, donor 28045) 28 pg/mL; (donor 110, Table 14) 472 pg/mL; (donor 112, Table 14) 48 pg/mL. Moreover, the “IFN-γ” value (donor 119, Table 14) is 40 pg/mL and the “IFN-γ” value (donor 120, Table 14) was found to be 28 pg/mL. This substance also had an IFN-α mean (Table 10, mean of donors) of 22 pg/mL. The substance further displayed an IFN-γ mean (Table 10, mean of donors) of 173 pg/mL. For the same substance, the “IFN-α (pg/ml) mean” value under setting [1] amounted to 75 pg/mL. The “IFN-γ (pg/ml) mean” value under setting [1] amounted to 147 pg/mL.

Regarding “5′-GsGs-3′-C3-5′-TCGTGC-3′-C3-5′-ATCGAT-3′-C3-5′-GCACGA-3′-C3-5′-GGsGsGsGsG-3′ (s = phosphorothioate linkages, otherwise linkages are phosphodiester) [Compound C-85]”, the IFN-α is, setting by setting: (Table 11, donor 28042) 0 pg/mL; (Table 11, donor 28043) 0 pg/mL; (Table 11, donor 28044) 28 pg/mL; (Table 11, donor 28045) 24 pg/mL. Further, the IFN-γ runs as follows: (Table 11, donor 28042) 17 pg/mL; (Table 11, donor 28043) 13 pg/mL; (Table 11, donor 28044) 315 pg/mL; (Table 11, donor 28045) 134 pg/mL. The IFN-α mean (Table 11, mean of donors) amounted to 13 pg/mL. Also, the IFN-γ mean (Table 11, mean of donors) came to 120 pg/mL.

Turning to “5′-GsGs-3′-C3-5′-TGC-3′-C3-5′-ATCGAT-3′-C3-5′-GCA-3′-C3-5′-GGsGsGsGsG-3′ (s = phosphorothioate linkages, otherwise linkages are phosphodiester) [Compound C-84]”, the IFN-α turned out to be 0 pg/mL (Table 11, donor 28042); 0 pg/mL (Table 11, donor 28043); 5 pg/mL (Table 11, donor 28044); 222 pg/mL (Table 11, donor 28045). The IFN-γ is, setting by setting: (Table 11, donor 28042) 29 pg/mL; (Table 11, donor 28043) 23 pg/mL; (Table 11, donor 28044) 69 pg/mL; (Table 11, donor 28045) 232 pg/mL. Where the note is “Table 11, mean of donors”, the IFN-α mean amounted to 57 pg/mL. This substance returned an IFN-γ mean (Table 11, mean of donors) of 88 pg/mL.

In the case of “5′-GsGsGsGs-3′-C3-5′-ATCGAT-3′-C3-5′-TGATGCATCA-3′-C3-5′-ATCGAT-3′-C3-5′-GsGsGsGsGsG-3′ (s = phosphorothioate linkages, otherwise linkages are phosphodiester) (TGATGCATCA is SEQ ID NO: 105) (listed as DNA, chemistry not fully specified) [Compound C-87]”, where the note is “donor 28218, 20 μg/ml, 24 h”, the “IFN-a (pg/ml) 28218” value amounted to 3075 pg/mL and the “IFN-g (pg/ml) 28218” value was 83 pg/mL. Also, for the setting “donor 28219, 20 μg/ml, 24 h”, the “IFN-a (pg/ml) 28219” value is 32 pg/mL and the “IFN-g (pg/ml) 28219” value worked out at 24 pg/mL. In addition, under “donor 28220, 20 μg/ml, 24 h”, the “IFN-a (pg/ml) 28220” value was found to be 4269 pg/mL and the “IFN-g (pg/ml) 28220” value worked out at 38 pg/mL. Also, for the setting “donor 28221, 20 μg/ml, 24 h”, the “IFN-a (pg/ml) 28221” value was determined as 265 pg/mL and the “IFN-g (pg/ml) 28221” value stood at 977 pg/mL. Under setting [3], the “IFN-a (pg/ml) mean” value turned out to be 1910 pg/mL and the “IFN-g (pg/ml) mean” value was 281 pg/mL. The “IFN-α induction, in words” value (used alone) is on record as “remarkable induction of IFN-α”.

With “5′-TCCA-3′-C3-5′-TGACGTT-3′-C3-5′-CCTGATGCT-3′ [Compound C-88]”, the IFN-α reads like this: (Table 24, donor 28234) 95 pg/mL; (Table 24, donor 28235) 16 pg/mL; (Table 24, donor 28236) 212 pg/mL; (Table 24, donor 28237) 111 pg/mL. In addition, the IFN-γ reads like this: (Table 24, donor 28234) 5 pg/mL; (Table 24, donor 28235) 21 pg/mL; (Table 24, donor 28236) 17 pg/mL; (Table 24, donor 28237) 477 pg/mL. Under setting [4], this substance showed an IFN-α mean of 109 pg/mL. Under setting [4], the IFN-γ mean worked out at 130 pg/mL.

Take “5′-TCCATTT-3′-HEG-5′-AACGTTC-3′-HEG-5′-TGACGTT-3′ [Compound C-61]”: the IFN-α runs as follows: (Table 13, donor 28156) 3 pg/mL; (Table 13, donor 28157) 0 pg/mL; (Table 13, donor 28158) 47 pg/mL; (Table 13, donor 28159) 0 pg/mL. For the same substance, the IFN-γ worked out at 92 pg/mL (Table 13, donor 28156); 179 pg/mL (Table 13, donor 28157); 35 pg/mL (Table 13, donor 28158); 63 pg/mL (Table 13, donor 28159). This substance also had an IFN-α mean (Table 13, mean of donors) of 13 pg/mL. Also, where the note is “Table 13, mean of donors”, the IFN-γ mean is 92 pg/mL. Further, the “IFN-γ induction when formulated with cPLGA, in words” value (formulated with cPLGA) is “induced IFN-γ when formulated with cPLGA”.

With 5′-TCG-3′-(ab)3-5′-T-3′ [Compound C-91], the “immunomodulatory activity (IFN-γ / IFN-α secretion), in words” value is given as “neither CIC was active on its own”. Moreover, for the setting “donor 28185, Table 15”, the “IFN-a” value amounted to 9 pg/mL and the “IFN-g” value amounted to 3 pg/mL. Moreover, where the note is “donor 28186, Table 15”, the “IFN-a” value amounted to 46 pg/mL and the “IFN-g” value was 4 pg/mL. For the setting “donor 28187, Table 15”, the “IFN-a” value worked out at 37 pg/mL and the “IFN-g” value was 6 pg/mL. Under “donor 28188, Table 15”, the “IFN-a” value came out at 4 pg/mL and the “IFN-g” value was found to be 7 pg/mL. Also, for the setting “formulated with cPLGA”, the “activity when formulated with cPLGA, in words” value was “significant activity when formulated on cPLGA”. Moreover, under setting [5], the “IFN-a (pg/ml) mean” value is 24 pg/mL and the “IFN-g (pg/ml) mean” value worked out at 5 pg/mL. In addition, for the setting “Table 15”, the “IFN-a (pg/ml) ×2” value was 48 pg/mL and the “IFN-g (pg/ml) ×4” value was 20 pg/mL.

Regarding 5′-TCG-3′-HEG-5′-T-3′ [Compound C-68], the “immunomodulatory activity (IFN-γ / IFN-α secretion), in words” value is “neither CIC was active on its own”. For the setting “donor 28185, Table 15”, the “IFN-a” value came out at 4 pg/mL and the “IFN-g” value turned out to be 0 pg/mL. In addition, under “donor 28186, Table 15”, the “IFN-a” value was 13 pg/mL and the “IFN-g” value was determined as 4 pg/mL. Moreover, for the setting “donor 28187, Table 15”, the “IFN-a” value was 25 pg/mL and the “IFN-g” value came out at 2 pg/mL. Besides, where the note is “donor 28188, Table 15”, the “IFN-a” value turned out to be 4 pg/mL and the “IFN-g” value was determined as 1 pg/mL. Further, under setting [5], the “IFN-a (pg/ml) mean” value came to 11 pg/mL and the “IFN-g (pg/ml) mean” value amounted to 2 pg/mL. Further, where the note is “Table 15”, the “IFN-a (pg/ml) ×2” value came to 23 pg/mL and the “IFN-g (pg/ml) ×4” value came out at 7 pg/mL.

As for “5′-TCG-3′-HEG-5′-TCG-3′-HEG-5′-TCG-3′-HEG-5′-TCG-3′-HEG-5′-TCG-3′-HEG-5′-TCG-3′ [Compound C-32]”, the “immunomodulatory activity (IFN-γ / IFN-α secretion), in words” value was “had activity when used alone”. For the setting “Table 9, donor 28089”, the IFN-α amounted to 285 pg/mL and the IFN-γ was 0 pg/mL. In addition, under “Table 9, donor 28090”, the IFN-α turned out to be 31 pg/mL and the IFN-γ came out at 5 pg/mL. Where the note is “Table 9, donor 28098”, this substance showed an IFN-α of 46 pg/mL and an IFN-γ of 11 pg/mL. For the same substance, under “Table 9, donor 28099”, the IFN-α amounted to 59 pg/mL and the IFN-γ came to 35 pg/mL. Where the note is “Table 9, mean of donors”, this substance came in with an IFN-α mean of 106 pg/mL and an IFN-γ mean of 13 pg/mL. Under “Table 10, donor 28042”, the IFN-α was determined as 0 pg/mL and the IFN-γ was 91 pg/mL. In addition, where the note is “Table 10, donor 28043”, the IFN-α amounted to 0 pg/mL and the IFN-γ is 19 pg/mL. For the same substance, for the setting “Table 10, donor 28044”, the IFN-α was 8 pg/mL and the IFN-γ is 78 pg/mL. Where the note is “Table 10, donor 28045”, this substance displayed an IFN-α of 0 pg/mL and an IFN-γ of 17 pg/mL. Under “Table 10, mean of donors”, this substance gave an IFN-α mean of 2 pg/mL and an IFN-γ mean of 51 pg/mL. The “activity when formulated with cPLGA, in words” value (formulated with cPLGA) is “more activity when formulated with cPLGA; also recorded: induced considerable IFN-γ and IFN-α when formulated with cPLGA”.

For the origin of these results see patent publication US9028845B2, “Chimeric immunomodulatory compounds and methods of using the same-IV” (Dynavax Technologies Corporation, priority 2001, dated 2015).
